# Experimental data reported in ChEMBL document CHEMBL6177954, “Identification of imidazo[1,2-a]pyridine-3-amine as a novel drug-like scaffold for efficious ferroptosis inhibition in vivo” (Eur J Med Chem, 2025).
# pIC50: −log10 of the molar value. Active and inactive are the calls of the source. The calls are words filed in the database; no cut-off is given here.
# How the values were obtained:
# [1] = system: SH-SY5Y; assay: Anti-ferroptosis activity against RSL3-induced ferroptosis in human SH-SY5Y cells assessed as reversal of ferroptosis by measuring cell viability measured after 48 hrs by MTT assay; format: functional, cell-based
# [2] = Plasma stability in rat plasma assessed as recovery measured after 12 hrs; format: ADME, cell-free; details: read-out: Drug recovery
# [3] = Plasma stability in human plasma assessed as half life; format: ADME, cell-free
# [4] = Metabolic stability in rat liver homogenate assessed as recovery measured after 12 hrs; format: ADME, tissue-based; details: read-out: Drug recovery
# [5] = Plasma stability in rat plasma assessed as half life; format: ADME, cell-free
# [6] = Metabolic stability in rat liver homogenate assessed as half life; format: ADME, tissue-based
# [7] = Plasma stability in human plasma assessed as recovery measured after 12 hrs; format: ADME, cell-free; details: read-out: Drug recovery
# [8] = Metal chelating activity assessed as compound-Fe2+ complex formation by UV-Vis absorption spectra analysis
# [9] = Metal chelating activity assessed as compound-Fe3+ complex formation by UV-Vis absorption spectra analysis
# [10] = system: OS-RC-2; assay: Anti-ferroptosis activity against RSL3-induced ferroptosis in human OS-RC-2 cells assessed as reversal of ferroptosis by measuring cell viability measured after 48 hrs by MTT assay; format: functional, cell-based
# [11] = system: HT-1080; assay: Anti-ferroptosis activity against RSL3-induced ferroptosis in human HT-1080 cells assessed as reversal of ferroptosis by measuring cell viability measured after 48 hrs by MTT assay; format: functional, cell-based
# [12] = system: HT-1080; assay: Prevention of RSL3-induced ferroptosis morphological changes in human HT-1080 cells assessed as shrinkage, swelling, and membrane rupture measured up to 48 hrs; format: functional, cell-based
# [13] = system: SH-SY5Y; assay: Prevention of TSZ-induced necroptosis in human SH-SY5Y cells assessed as cell viability at 5 uM measured after 48 hrs by MTT assay; format: functional, cell-based
# [14] = Toxicity in Balb/c mouse assessed as histopathological changes in liver at 20 mg/kg, iv (tail vein) measured for 24 hrs by H and E staining based analysis; format: organism-based; details: in vivo
# [15] = Toxicity in Balb/c mouse assessed as histopathological changes in lung at 20 mg/kg, iv (tail vein) measured for 24 hrs by H and E staining based analysis; format: organism-based; details: in vivo
# [16] = system: SH-SY5Y; assay: Anti-ferroptotic activity against RSL3 induced human SH-SY5Y cells inhibition of RSL3 induced in MDA level at 1.5 uM measured after 16 hrs by lipid peroxidation MDA assay; format: functional, cell-based
# [17] = Toxicity in Balb/c mouse assessed as histopathological changes in heart at 20 mg/kg, iv (tail vein) measured for 24 hrs by H and E staining based analysis; format: organism-based; details: in vivo
# [18] = system: Mus musculus; assay: Protection against middle cerebral artery occlusion (MCAO)-induced Balb/c mouse assessed as reduction in PTGS2 mRNA level in lesioned hemisphere at 20 mg/kg, iv (tail vein) measured for 24 hrs by qRT-PCR analysis; format: functional, organism-based
# [19] = system: SH-SY5Y; assay: Prevention of RSL3-induced ferroptosis in human SH-SY5Y cells assessed as cell viability at 5 uM measured after 48 hrs by MTT assay; format: functional, cell-based
# [20] = system: SH-SY5Y; assay: Anti-ferroptotic activity against RSL3 induced human SH-SY5Y cells inhibition of RSL3 induced in LPO accumulation at 1.5 uM measured after 16 hrs by DCFH-DA based confocal laser scanning microscopic (CLSM) imaging analysis; format: functional, cell-based
# [21] = system: Mus musculus; assay: Protection against middle cerebral artery occlusion (MCAO)-induced Balb/c mouse assessed as reduction in MDA level in lesioned hemisphere at 20 mg/kg, iv (tail vein) measured for 24 hrs by lipid peroxidation MDA assay; format: functional, organism-based
# [22] = system: L02; assay: Cytotoxicity against human LO2 cells at 30 uM measured after 48 hrs incubation by MTT assay; format: toxicity, cell-based; details: l02, 48 h
# [23] = Free radical trapping antioxidant activity in di-tert-undecyl hyponitrite (DTUN) trigged STY-BODIPY-embedded egg phosphatidylcholine liposomes assessed as inhibition of phospholipid peroxidation by measuring inhibition rate constant of STY-BODIPY at 1 uM by fluorescence-enabled inhibited autoxidation method (FENIX); format: functional
# [24] = system: SH-SY5Y; assay: Prevention of STS-induced apoptosis in human SH-SY5Y cells assessed as cell viability at 5 uM measured after 48 hrs by MTT assay; format: functional, cell-based
# [25] = system: SH-SY5Y; assay: Anti-ferroptotic activity against RSL3 induced human SH-SY5Y cells inhibition of RSL3 induced in LPO accumulation at 1.5 uM measured after 16 hrs by BODIPY581/591 based flow cytometric analysis; format: functional, cell-based
# [26] = Toxicity in Balb/c mouse assessed as histopathological changes in kidney at 20 mg/kg, iv (tail vein) measured for 24 hrs by H and E staining based analysis; format: organism-based; details: in vivo
# [27] = Antioxidant activity assessed as DPPH radical scavenging activity measured after 30 mins in dark by (DPPH) bleaching assay; format: functional
# [28] = Cytotoxicity against human HUVEC at 30 uM measured after 48 hrs incubation by MTT assay; format: toxicity, cell-based; details: huve
# [29] = Toxicity in Balb/c mouse assessed as histopathological changes in spleen at 20 mg/kg, iv (tail vein) measured for 24 hrs by H and E staining based analysis; format: organism-based; details: in vivo
# [30] = system: Mus musculus; assay: Protection against middle cerebral artery occlusion (MCAO)-induced Balb/c mouse assessed as reduction in infarct volume in brain at 20 mg/kg, iv (tail vein) measured for 24 hrs by TTC staining (reference value: 50.08%); format: functional; design: scale not given: the % may be the effect or the level left
structure (smiles),measurement,setting,value
COc1ccc(-c2nc3ccccn3c2NC23C[C@H]4C[C@@H](C2)C[C@@H](C3)C4)cc1,pIC50,[1],5.73
Clc1cc(Cl)cc(CNc2c(-c3cc(Cl)cc(Cl)c3)nc3ccc4ccccc4n23)c1,pIC50,[1],6.12
Clc1cccc(CNc2c(-c3cccc(Cl)c3)nc3ccccn23)c1,pIC50,[1],6.74
CC(C)(C)Nc1c(-c2ccoc2)nc2ccccn12,pIC50,[1],< 5.00
Oc1ccccc1-c1nc2ccccn2c1Cc1ccccc1,pIC50,[1],5.28
COc1ccc(Nc2c(-c3c(Cl)cc(Cl)cc3Cl)nc3ccc4ccccc4n23)cc1Cl,remaining at 12 h,[2],42.3%
same,pIC50,[1],7.66
same,half-life,[3],< 4.8 min
same,remaining at 12 h,[4],32.2%
same,half-life,[5],< 4.8 min
same,half-life,[6],< 4.8 min
same,remaining at 12 h,[7],47.9%
c1ccn2c(NC34C[C@H]5C[C@@H](C3)C[C@@H](C4)C5)c(C3CCCCC3)nc2c1,pIC50,[1],< 5.00
COc1ccc(Nc2c(-c3cc(Cl)cc(Cl)c3)nc3ccc(N4CCN(C)CC4)cn23)cc1Cl,pIC50,[1],7.08
CC(=O)N(O)CCCCCNC(=O)CCC(=O)N(O)CCCCCNC(=O)CCC(=O)N(O)CCCCCN,Activity,[8],Active
same,Activity,[9],Active
Clc1cc(Cl)cc(-c2nc3ccc4ccccc4n3c2NC2CCCCC2)c1,pIC50,[1],6.04
FC(F)(F)c1ccccc1-c1nc2ccccn2c1NCc1ccco1,pIC50,[1],6.39
Cc1ccc2nc(-c3ccc(N4CCOCC4)cc3)c(NC3CCCCC3)n2c1,pIC50,[1],< 5.00
COc1ccc(Nc2c(C3CCCCC3)nc3ccccn23)cc1Cl,Activity,[10],Active
same,Activity,[11],Active
same,Activity,[12],Active
same,Activity,[13],inactive
same,remaining at 12 h,[2],100%
same,pIC50,[1],7.01
same,half-life,[3],> 720 min
same,Activity,[14],Non-toxic
same,Activity,[8],inactive
same,Activity,[15],Non-toxic
same,Activity,[16],Active
same,Activity,[17],Non-toxic
same,Activity,[18],Active
same,Activity,[19],Active
same,Activity,[20],Active
same,Activity,[21],Active
same,Activity,[22],Non-toxic
same,Ki,[23],2 10^4/M/s
same,Activity,[24],inactive
same,Activity,[25],Active
same,Activity,[26],Non-toxic
same,remaining at 12 h,[4],91.1%
same,Activity,[27],Dose-dependent-effect
same,half-life,[5],> 720 min
same,Activity,[28],Non-toxic
same,Activity,[29],Non-toxic
same,half-life,[6],> 720 min
same,Activity,[30],25.28%
same,remaining at 12 h,[7],100%
same,Activity,[9],inactive
Clc1cc(Cl)cc(CNc2c(-c3cscn3)nc3ccccn23)c1,pIC50,[1],5.69
Oc1ccccc1-c1cn2ccccc2n1,pIC50,[1],5.01
Oc1ccc(-c2cn3ccccc3n2)c(O)c1,pIC50,[1],5.62
Nc1ccccc1-c1cn2ccccc2n1,pIC50,[1],< 5.00
CCOC(=O)c1ccc(NC2CCCCC2)c(N)c1,remaining at 12 h,[2],0%
same,pIC50,[1],7.70
same,half-life,[3],> 720 min
same,Activity,[19],Active
same,remaining at 12 h,[4],7.1%
same,half-life,[5],126 min
same,half-life,[6],40.2 min
same,remaining at 12 h,[7],94.1%
Clc1cccc(CNc2c(-c3cccc(Cl)c3)nc3ccc4ccccc4n23)c1,pIC50,[1],6.54
COc1ccc(-c2nc3ccccn3c2NC(C)(C)C)cc1,pIC50,[1],< 4.52
FC(F)(F)c1ccccc1-c1nc2ccc3ccccc3n2c1NC1CCCCC1,pIC50,[1],6.98
Clc1cc(Cl)cc(CNc2c(-c3cc(Cl)cc(Cl)c3)nc3ccccn23)c1,pIC50,[1],5.71
CCOC(=O)CNc1c(-c2ccc(OC)cc2)nc2ccccn12,pIC50,[1],5.40
c1coc(CNc2c(-c3cscn3)nc3ccccn23)c1,pIC50,[1],5.58
Oc1ccccc1-c1cccn2c(Cc3ccccc3)c(-c3ccccc3)nc12,pIC50,[1],< 4.52
COc1ccc(Nc2c(-c3ccsc3)nc3ccccn23)cc1Cl,pIC50,[1],6.32
COc1ccc(Nc2c(-c3cc(Cl)cc(Cl)c3)nc3cc(COCc4cccc(Cl)c4)ccn23)cc1Cl,pIC50,[1],6.10
COc1ccc(Nc2c(-c3ccoc3)nc3ccccn23)cc1Cl,Activity,[10],Active
same,Activity,[11],Active
same,Activity,[12],Active
same,Activity,[13],inactive
same,remaining at 12 h,[2],100%
same,pIC50,[1],7.00
same,half-life,[3],> 720 min
same,Activity,[8],inactive
same,Activity,[16],Active
same,Activity,[19],Active
same,Activity,[20],Active
same,Activity,[22],Non-toxic
same,Ki,[23],1.6 10^4/M/s
same,Activity,[24],inactive
same,Activity,[25],Active
same,remaining at 12 h,[4],95.8%
same,Activity,[27],Dose-dependent-effect
same,half-life,[5],> 720 min
same,Activity,[28],Non-toxic
same,half-life,[6],> 720 min
same,remaining at 12 h,[7],100%
same,Activity,[9],inactive
Clc1cc(Cl)cc(CNc2c(-c3ccoc3)nc3ccccn23)c1,pIC50,[1],5.81
COc1ccc(Nc2c(-c3csc4ccccc34)nc3ccccn23)cc1Cl,pIC50,[1],6.71
c1ccn2c(NC34C[C@H]5C[C@@H](C3)C[C@@H](C4)C5)c(-c3cscn3)nc2c1,pIC50,[1],< 4.52
COc1ccc(Nc2c(-c3ccccc3Cl)nc3ccc4ccccc4n23)cc1Cl,pIC50,[1],7.19
Cc1ccccc1-c1cn2ccccc2n1,pIC50,[1],< 4.00
Clc1cccc(-c2nc3ccccn3c2NC23C[C@H]4C[C@@H](C2)C[C@@H](C3)C4)c1,pIC50,[1],< 4.52
Clc1cc(Cl)cc(-c2nc3ccccn3c2NC2CCCCC2)c1,pIC50,[1],6.20
COc1ccc(-c2nc3ccccn3c2NC2CCCCC2)cc1,pIC50,[1],< 5.00
Cc1ccc2nc(-c3cccc(Cl)c3)c(NC(C)(C)C)n2c1,pIC50,[1],< 5.00
COc1ccc(Nc2c(C3CCCCC3)nc3ccc(F)cn23)cc1Cl,pIC50,[1],7.10
Cc1cn2cccc(-c3ccccc3O)c2n1,pIC50,[1],< 4.52
c1ccc2c(c1)ccc1nc(-c3ccsc3)c(NC3CCCCC3)n12,pIC50,[1],6.37
CCOC(=O)CNc1c(-c2ccccc2)nc2ccccn12,pIC50,[1],5.53
Cc1cn2cccc(-c3ccccc3N)c2n1,pIC50,[1],< 4.00
